The test system of the experiment is Adult L. serricata (blowflies). Kind of experiment: Test A: adult blowflies on blood agar containing test compound, scored by number of dead flies. The format is in vivo. The note with it: 4 flies in test. The protocol:
Adult L. serricata (blowflies): Adult flies are placed on beds of blood agar (in individual test wells; 4 flies per well) in which test compound, (3-bromo-N-[4-chloro-2-methyl-6-[(methylamino)carbonyl]phenyl]-1-(3-chloro-2-pyridinyl)-1H-pyrazole-5-carboxamide), was dissolved/suspended prior to hardening of agar. Flies can take up test compound by both ingestion and contact. Assays are scored by number of dead flies at 2 hours, 4 hours, and 24 hours.

Here are results for two compounds from patent US20100197738A1, “FLY CONTROL METHOD” (priority 2007, published 2010).

The structures appear in SMILES notation.

Take `CCOP(=S)(OCC)Oc1nc(Cl)c(Cl)cc1Cl` [Chloropyriphos, O,O-diethyl-O-3,5,6-trichloro-2-pyridyl-phosphorothioate]: the “Number dead flies at 2 hours” value reads like this: (Rate 1 ppm in blood agar) 0; (Rate 10 ppm in blood agar) 1; (Rate 25 ppm in blood agar) 3; (Rate 50 ppm in blood agar) 4; (Rate 100 ppm in blood agar) 4. The “Number dead flies at 4 hours” value worked out at 1 (Rate 1 ppm in blood agar); 4 (Rate 10 ppm in blood agar); 4 (Rate 25 ppm in blood agar); 4 (Rate 50 ppm in blood agar); 4 (Rate 100 ppm in blood agar). In addition, the “Number dead flies at 24 hours” value is 4 (Rate 1 ppm in blood agar); 4 (Rate 10 ppm in blood agar); 4 (Rate 25 ppm in blood agar); 4 (Rate 50 ppm in blood agar); 4 (Rate 100 ppm in blood agar).
On to `CNC(=O)c1cc(Cl)cc(C)c1NC(=O)c1cc(Br)nn1-c1ncccc1Cl` [Test Compound, 3-bromo-N-[4-chloro-2-methyl-6-[(methylamino)carbonyl]phenyl]-1-(3-chloro-2-pyridinyl)-1H-pyrazole-5-carboxamide], for which the “Number dead flies at 2 hours” value (Rate 1 ppm in blood agar) came out at 0; the “Number dead flies at 2 hours” value (Rate 10 ppm in blood agar) is 0; the “Number dead flies at 2 hours” value (Rate 25 ppm in blood agar) was found to be 0; the “Number dead flies at 2 hours” value (Rate 50 ppm in blood agar) is reported as 0; the “Number dead flies at 2 hours” value (Rate 100 ppm in blood agar) is 0. The “Number dead flies at 4 hours” value by setting is: (Rate 1 ppm in blood agar) 0; (Rate 10 ppm in blood agar) 0; (Rate 25 ppm in blood agar) 0; (Rate 50 ppm in blood agar) 0; (Rate 100 ppm in blood agar) 0. Besides, the “Number dead flies at 24 hours” value came out at 0 (Rate 1 ppm in blood agar); 1 (Rate 10 ppm in blood agar); 2 (Rate 25 ppm in blood agar); 2 (Rate 50 ppm in blood agar); 3 (Rate 100 ppm in blood agar).
